According to patent US9593156B2 (priority 2012, dated 2017):
Several values for one entry are separate records, joined by “and”; a condition that tells them apart may be missing. Identical values can stand only once. Like-named read-outs stand apart in the source and are kept apart here.

Assays:
IGF-1 receptor [1] = target: T1, IGF-1 receptor (Homo sapiens, UniProt P08069); experiment: IGF-1 receptor competition binding assay (scintillation proximity); design: expressed in transfected cells; plasma membrane fragments
T1 sequence (P08069 31-736 limits assumed): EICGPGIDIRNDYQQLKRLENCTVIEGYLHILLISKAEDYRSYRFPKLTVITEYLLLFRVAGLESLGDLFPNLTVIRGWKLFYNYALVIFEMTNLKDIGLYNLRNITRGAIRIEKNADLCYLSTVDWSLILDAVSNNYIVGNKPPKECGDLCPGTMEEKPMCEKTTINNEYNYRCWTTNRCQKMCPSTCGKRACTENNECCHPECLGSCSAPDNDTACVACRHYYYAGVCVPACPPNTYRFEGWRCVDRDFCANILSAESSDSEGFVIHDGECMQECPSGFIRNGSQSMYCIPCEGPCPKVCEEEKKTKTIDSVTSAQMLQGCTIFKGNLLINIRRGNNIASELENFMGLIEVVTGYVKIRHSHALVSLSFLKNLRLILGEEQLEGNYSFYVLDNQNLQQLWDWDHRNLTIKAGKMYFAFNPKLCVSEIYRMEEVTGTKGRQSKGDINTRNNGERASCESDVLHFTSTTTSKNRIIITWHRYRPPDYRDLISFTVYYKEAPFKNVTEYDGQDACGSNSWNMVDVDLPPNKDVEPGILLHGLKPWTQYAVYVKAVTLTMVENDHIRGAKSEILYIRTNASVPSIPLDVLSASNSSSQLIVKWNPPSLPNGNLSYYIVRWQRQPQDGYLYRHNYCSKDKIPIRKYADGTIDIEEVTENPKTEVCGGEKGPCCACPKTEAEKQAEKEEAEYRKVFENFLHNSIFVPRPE
T1 sequence (P08069 741-1367 partner limits assumed): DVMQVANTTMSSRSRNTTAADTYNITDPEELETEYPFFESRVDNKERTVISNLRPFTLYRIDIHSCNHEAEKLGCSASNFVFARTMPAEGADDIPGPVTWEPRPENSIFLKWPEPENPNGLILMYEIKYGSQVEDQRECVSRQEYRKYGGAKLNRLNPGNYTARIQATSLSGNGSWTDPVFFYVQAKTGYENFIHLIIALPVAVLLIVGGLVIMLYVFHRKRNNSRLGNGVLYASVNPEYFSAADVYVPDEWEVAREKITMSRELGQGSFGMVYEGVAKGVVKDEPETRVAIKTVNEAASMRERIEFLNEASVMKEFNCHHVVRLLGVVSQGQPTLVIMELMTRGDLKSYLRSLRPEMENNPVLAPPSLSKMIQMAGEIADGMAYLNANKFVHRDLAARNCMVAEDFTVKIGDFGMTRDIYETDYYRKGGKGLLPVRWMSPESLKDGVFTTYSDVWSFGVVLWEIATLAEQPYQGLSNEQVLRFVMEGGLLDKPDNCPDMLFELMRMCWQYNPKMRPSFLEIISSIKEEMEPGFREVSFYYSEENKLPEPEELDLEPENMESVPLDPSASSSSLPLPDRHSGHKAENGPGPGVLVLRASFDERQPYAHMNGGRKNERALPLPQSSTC

insulin receptor [2] = target: T2, insulin receptor (Homo sapiens, UniProt P06213); experiment: Insulin receptor competition binding assay (scintillation proximity); design: expressed in transfected cells; plasma membrane fragments
T2 sequence (P06213 28-758 limits assumed): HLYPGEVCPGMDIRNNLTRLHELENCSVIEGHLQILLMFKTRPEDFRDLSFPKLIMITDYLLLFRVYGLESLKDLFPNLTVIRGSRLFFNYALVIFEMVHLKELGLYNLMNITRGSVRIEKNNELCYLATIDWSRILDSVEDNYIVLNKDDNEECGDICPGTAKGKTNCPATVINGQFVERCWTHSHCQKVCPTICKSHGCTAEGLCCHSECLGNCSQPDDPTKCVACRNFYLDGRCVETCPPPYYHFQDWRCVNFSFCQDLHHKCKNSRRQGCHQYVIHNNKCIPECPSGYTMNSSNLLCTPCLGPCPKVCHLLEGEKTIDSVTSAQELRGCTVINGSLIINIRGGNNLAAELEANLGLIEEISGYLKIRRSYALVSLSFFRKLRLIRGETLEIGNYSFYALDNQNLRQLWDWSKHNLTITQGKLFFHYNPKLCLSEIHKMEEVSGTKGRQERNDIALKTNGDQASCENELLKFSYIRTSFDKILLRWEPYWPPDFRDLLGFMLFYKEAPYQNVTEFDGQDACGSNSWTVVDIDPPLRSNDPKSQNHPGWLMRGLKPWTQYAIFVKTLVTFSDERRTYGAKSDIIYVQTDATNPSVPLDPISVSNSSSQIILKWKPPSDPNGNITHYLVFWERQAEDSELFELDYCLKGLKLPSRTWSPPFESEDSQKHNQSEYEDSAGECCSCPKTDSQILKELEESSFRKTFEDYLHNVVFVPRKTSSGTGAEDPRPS
T2 sequence (P06213 763-1382 partner limits assumed): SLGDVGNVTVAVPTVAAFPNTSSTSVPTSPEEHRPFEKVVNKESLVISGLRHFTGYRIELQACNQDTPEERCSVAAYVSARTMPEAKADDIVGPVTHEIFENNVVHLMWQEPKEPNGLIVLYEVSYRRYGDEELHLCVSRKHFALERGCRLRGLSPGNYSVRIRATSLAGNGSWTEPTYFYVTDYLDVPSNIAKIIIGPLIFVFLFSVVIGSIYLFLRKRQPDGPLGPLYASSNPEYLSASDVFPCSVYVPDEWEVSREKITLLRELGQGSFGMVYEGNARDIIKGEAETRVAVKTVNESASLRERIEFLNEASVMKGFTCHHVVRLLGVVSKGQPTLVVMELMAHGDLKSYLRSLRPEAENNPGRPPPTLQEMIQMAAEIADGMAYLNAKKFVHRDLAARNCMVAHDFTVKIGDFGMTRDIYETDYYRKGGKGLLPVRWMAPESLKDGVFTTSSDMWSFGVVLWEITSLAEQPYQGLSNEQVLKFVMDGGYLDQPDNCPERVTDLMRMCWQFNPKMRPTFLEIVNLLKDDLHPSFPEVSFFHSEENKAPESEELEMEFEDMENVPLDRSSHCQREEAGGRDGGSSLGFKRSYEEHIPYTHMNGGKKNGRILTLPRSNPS

insulin receptor [3] = target: T2, insulin receptor; experiment: Insulin receptor phosphorylation assay in receptor transfected HEK293 cells; format: cell-based; design: expressed in transfected cells; host or cells: HEK293
IGF-1 receptor [4] = target: T1, IGF-1 receptor; experiment: IGF-1 receptor phosphorylation assay in receptor transfected HEK293 cells; format: cell-based; design: expressed in transfected cells; host or cells: HEK293
[5] = Table 9, IGF-1 receptor versus insulin receptor

For `CC[C@H](C)[C@H](NC(=O)CN)C(=O)N[C@H](C(=O)N[C@@H](CC(=O)O)C(=O)N[C@@H](CCC(=O)O)C(=O)N[C@H]1CSSC[C@@H]2NC(=O)[C@H](CO)NC(=O)[C@H](C)NC(=O)[C@H](Cc3c[nH]cn3)NC(=O)[C@H](CSSC[C@H](NC(=O)[C@H](CC(C)C)NC(=O)[C@H](Cc3c[nH]cn3)NC(=O)[C@H](CCC(=O)O)NC(=O)[C@@H]3CCCN3C(=O)CN)C(=O)NCC(=O)N[C@@H](C)C(=O)N[C@@H](CC(=O)O)C(=O)N[C@@H](CC(C)C)C(=O)N[C@@H](C(C)C)C(=O)N[C@@H](CC(=O)O)C(=O)N[C@@H](C)C(=O)N[C@@H](CC(C)C)C(=O)N[C@@H](Cc3ccc(O)cc3)C(=O)N[C@@H](CC(C)C)C(=O)N[C@@H](C(C)C)C(=O)N[C@H](C(=O)NCC(=O)N[C@@H](CC(=O)O)C(=O)N[C@@H](C)C(=O)NCC(=O)N[C@@H](Cc3ccccc3)C(=O)N[C@@H](Cc3ccc(O)cc3)C(N)=O)CSSC[C@@H](C(=O)N[C@@H](CC(N)=O)C(=O)O)NC(=O)[C@H](Cc3ccc(O)cc3)NC(=O)[C@H](CCSC)NC(=O)[C@H](CCC(=O)O)NC(=O)[C@H](CC(C)C)NC(=O)[C@H](CCCNC(=N)N)NC(=O)[C@H](CCCNC(=N)N)NC(=O)[C@H](CC(C)C)NC(=O)[C@H](CC(=O)O)NC2=O)NC1=O)C(C)C`, the “% IGF-1 (in test)” value (IGF-1 receptor [1]) was 2.3%, the Ratio (IGF-1 receptor [1]) was 190.3 and the “% insulin (in test)” value (insulin receptor [2]) was 1171.4%. The “% Insulin” value (insulin receptor [3]) was 360% and 614%, the “% IGF” value (IGF-1 receptor [4]) was 7.7% and the “Selective Ratio” value (IGF-1 receptor [4]) was 32.54.

`CC[C@H](C)[C@H](NC(=O)CN)C(=O)N[C@H](C(=O)N[C@@H](CC(=O)O)C(=O)N[C@@H](CCC(=O)O)C(=O)N[C@H]1CSSC[C@@H]2NC(=O)[C@H](CO)NC(=O)[C@H](C)NC(=O)[C@H](Cc3c[nH]cn3)NC(=O)[C@H](CSSC[C@H](NC(=O)[C@H](CC(C)C)NC(=O)[C@H](Cc3c[nH]cn3)NC(=O)[C@H](CCC(=O)O)NC(=O)[C@@H]3CCCN3C(=O)CN)C(=O)NCC(=O)N[C@@H](C)C(=O)N[C@@H](CC(=O)O)C(=O)N[C@@H](CC(C)C)C(=O)N[C@@H](C(C)C)C(=O)N[C@@H](CC(=O)O)C(=O)N[C@@H](C)C(=O)N[C@@H](CC(C)C)C(=O)N[C@@H](Cc3ccc(O)cc3)C(=O)N[C@@H](CC(C)C)C(=O)N[C@@H](C(C)C)C(=O)N[C@H](C(=O)NCC(=O)N[C@@H](CC(=O)O)C(=O)N[C@@H](CCCNC(=N)N)C(=O)NCC(=O)N[C@@H](Cc3ccccc3)C(=O)N[C@@H](Cc3ccc(O)cc3)C(N)=O)CSSC[C@@H](C(=O)N[C@@H](CC(N)=O)C(=O)O)NC(=O)[C@H](Cc3ccc(O)cc3)NC(=O)[C@H](CCSC)NC(=O)[C@H](CCC(=O)O)NC(=O)[C@H](CC(C)C)NC(=O)[C@H](CCCNC(=N)N)NC(=O)[C@H](CCCNC(=N)N)NC(=O)[C@H](CC(C)C)NC(=O)[C@H](CC(=O)O)NC2=O)NC1=O)C(C)C` was tested, and the “% IGF-1 (in test)” value (IGF-1 receptor [1]; Table 9, IGF-1 Receptor) was 12.9%, the Ratio (IGF-1 receptor [1]; [5]) was 80.6 and the “% insulin (in test)” value (insulin receptor [2]; Table 9, Insulin Receptor) was 1576.7% and 1667.0%. For the same molecule, the “% Insulin” value (insulin receptor [3]; Table 10, Insulin Receptor, listed as IGF-1 A (H8 A9 N21) B(H5D10Y16L17) DPI A-COOH) was 840% and 1080% and the “% IGF” value (IGF-1 receptor [4]; Table 10, IGF-1 Receptor) was 181.395%.

In the case of `CC[C@H](C)[C@H](NC(=O)CN)C(=O)N[C@H](C(=O)N[C@@H](CC(=O)O)C(=O)N[C@@H](CCC(=O)O)C(=O)N[C@H]1CSSC[C@@H]2NC(=O)[C@H](CO)NC(=O)[C@H](CCCNC(=N)N)NC(=O)[C@H](Cc3ccccc3)NC(=O)[C@H](CSSC[C@H](NC(=O)[C@H](CC(C)C)NC(=O)[C@H](Cc3c[nH]cn3)NC(=O)[C@H](CCC(=O)O)NC(=O)[C@@H]3CCCN3C(=O)CN)C(=O)NCC(=O)N[C@@H](C)C(=O)N[C@@H](CC(=O)O)C(=O)N[C@@H](CC(C)C)C(=O)N[C@@H](C(C)C)C(=O)N[C@@H](CC(=O)O)C(=O)N[C@@H](C)C(=O)N[C@@H](CC(C)C)C(=O)N[C@@H](Cc3ccc(O)cc3)C(=O)N[C@@H](CC(C)C)C(=O)N[C@@H](C(C)C)C(=O)N[C@H](C(=O)NCC(=O)N[C@@H](CC(=O)O)C(=O)N[C@@H](CCCNC(=N)N)C(=O)NCC(=O)N[C@@H](Cc3ccccc3)C(=O)N[C@@H](Cc3ccc(O)cc3)C(N)=O)CSSC[C@@H](C(=O)N[C@@H](C)C(N)=O)NC(=O)[C@H](Cc3ccc(O)cc3)NC(=O)[C@H](CCSC)NC(=O)[C@H](CCC(=O)O)NC(=O)[C@H](CC(C)C)NC(=O)[C@H](CCCNC(=N)N)NC(=O)[C@H](CCCNC(=N)N)NC(=O)[C@H](CC(C)C)NC(=O)[C@H](CC(=O)O)NC2=O)NC1=O)C(C)C` [IGF-1 A:B (H5D10Y16L17) DPI], the “% IGF-1 (in test)” value (IGF-1 receptor [1]; Table 9, IGF-1 Receptor) is reported as 11.2%, the Ratio (IGF-1 receptor [1]; [5]) is reported as 29.1 and the “% insulin (in test)” value (insulin receptor [2]; Table 9, Insulin Receptor) is reported as 479.0%. For the same molecule, the “% IGF” value (IGF-1 receptor [4]; Table 10, IGF-1 Receptor) was 7.1%.

With `CC[C@H](C)[C@H](NC(=O)CN)C(=O)N[C@H](C(=O)N[C@@H](CC(=O)O)C(=O)N[C@@H](CCC(=O)O)C(=O)N[C@H]1CSSC[C@@H]2NC(=O)[C@H](CO)NC(=O)[C@H](CCCNC(=N)N)NC(=O)[C@H](Cc3ccccc3)NC(=O)[C@H](CSSC[C@H](NC(=O)[C@H](CC(C)C)NC(=O)[C@@H](NC(=O)[C@H](CCC(=O)O)NC(=O)[C@@H]3CCCN3C(=O)CN)[C@@H](C)O)C(=O)NCC(=O)N[C@@H](C)C(=O)N[C@@H](CC(=O)O)C(=O)N[C@@H](CC(C)C)C(=O)N[C@@H](C(C)C)C(=O)N[C@@H](CC(=O)O)C(=O)N[C@@H](C)C(=O)N[C@@H](CC(C)C)C(=O)N[C@@H](Cc3ccc(O)cc3)C(=O)N[C@@H](CC(C)C)C(=O)N[C@@H](C(C)C)C(=O)N[C@H](C(=O)NCC(=O)N[C@@H](CC(=O)O)C(=O)N[C@@H](CCCNC(=N)N)C(=O)NCC(=O)N[C@@H](Cc3ccccc3)C(=O)N[C@@H](Cc3ccc(O)cc3)C(N)=O)CSSC[C@@H](C(=O)N[C@@H](C)C(=O)O)NC(=O)[C@H](Cc3ccc(O)cc3)NC(=O)[C@H](CCSC)NC(=O)[C@H](CCC(=O)O)NC(=O)[C@H](CC(C)C)NC(=O)[C@H](CCCNC(=N)N)NC(=O)[C@H](CCCNC(=N)N)NC(=O)[C@H](CC(C)C)NC(=O)[C@H](CC(=O)O)NC2=O)NC1=O)C(C)C` [IGF-1 A:B(D10Y16L17) DPI A-COOH] the “% IGF-1 (in test)” value (IGF-1 receptor [1]; Table 9, IGF-1 Receptor) was 7.7%, the “% Insulin” value (insulin receptor [3]; Table 10, Insulin Receptor) was 1575% and the “% IGF” value (IGF-1 receptor [4]; Table 10, IGF-1 Receptor) was 111.538%.

`CC[C@H](C)[C@H](NC(=O)CN)C(=O)N[C@H](C(=O)N[C@@H](CC(=O)O)C(=O)N[C@@H](CCC(=O)O)C(=O)N[C@H]1CSSC[C@@H]2NC(=O)[C@H](CO)NC(=O)[C@H](CCCNC(=N)N)NC(=O)[C@H](Cc3ccccc3)NC(=O)[C@H](CSSC[C@H](NC(=O)[C@H](CC(C)C)NC(=O)[C@@H](NC(=O)[C@H](CCC(=O)O)NC(=O)[C@@H]3CCCN3C(=O)CN)[C@@H](C)O)C(=O)NCC(=O)N[C@@H](C)C(=O)N[C@@H](CCC(=O)O)C(=O)N[C@@H](CC(C)C)C(=O)N[C@@H](C(C)C)C(=O)N[C@@H](CC(=O)O)C(=O)N[C@@H](C)C(=O)N[C@@H](CC(C)C)C(=O)N[C@@H](Cc3ccc(O)cc3)C(=O)N[C@@H](CC(C)C)C(=O)N[C@@H](C(C)C)C(=O)N[C@H](C(=O)NCC(=O)N[C@@H](CC(=O)O)C(=O)N[C@@H](CCCNC(=N)N)C(=O)NCC(=O)N[C@@H](Cc3ccccc3)C(=O)N[C@@H](Cc3ccc(O)cc3)C(=O)N[C@@H](Cc3ccccc3)C(=O)N[C@@H](CC(N)=O)C(=O)N[C@@H](CCCCN)C(=O)N3CCC[C@H]3C(=O)N[C@H](C(=O)N[C@@H](CCC(=O)O)C(=O)N[C@@H](CCC(=O)O)C(=O)O)[C@@H](C)O)CSSC[C@@H](C(=O)N[C@@H](C)C(N)=O)NC(=O)[C@H](Cc3ccc(O)cc3)NC(=O)[C@H](CCSC)NC(=O)[C@H](CCC(=O)O)NC(=O)[C@H](CC(C)C)NC(=O)[C@H](CCCNC(=N)N)NC(=O)[C@H](CCCNC(=N)N)NC(=O)[C@H](CC(C)C)NC(=O)[C@H](CC(=O)O)NC2=O)NC1=O)C(C)C` [IGF-1 A:B(E10 Y16L17)-E31E3 2B-COOH] was tested, and the “% IGF-1 (in test)” value (IGF-1 receptor [1]; Table 9, IGF-1 Receptor) was 3.0%, the Ratio (IGF-1 receptor [1]; [5]) was 14.3 and the “% insulin (in test)” value (insulin receptor [2]; Table 9, Insulin Receptor) was 36.5%. For the same molecule, the “% native insulin activity (0.6 nM)” value (insulin receptor [2]; Table 9, Insulin Receptor) was 50.0% and the “% Insulin” value (insulin receptor [3]; Table 10, Insulin Receptor) was 18.1% and 31.7%.

With `CC[C@H](C)[C@H](NC(=O)CN)C(=O)N[C@H](C(=O)N[C@@H](CC(=O)O)C(=O)N[C@@H](CCC(=O)O)C(=O)N[C@H]1CSSC[C@@H]2NC(=O)[C@H](CO)NC(=O)[C@H](CCCNC(=N)N)NC(=O)[C@H](Cc3ccccc3)NC(=O)[C@H](CSSC[C@H](NC(=O)[C@H](CC(C)C)NC(=O)[C@@H](NC(=O)[C@H](CCC(=O)O)NC(=O)[C@@H]3CCCN3C(=O)CN)[C@@H](C)O)C(=O)NCC(=O)N[C@@H](C)C(=O)N[C@@H](CCC(=O)O)C(=O)N[C@@H](CC(C)C)C(=O)N[C@@H](C(C)C)C(=O)N[C@@H](CC(=O)O)C(=O)N[C@@H](C)C(=O)N[C@@H](CC(C)C)C(=O)N[C@@H](Cc3ccc(O)cc3)C(=O)N[C@@H](CC(C)C)C(=O)N[C@@H](C(C)C)C(=O)N[C@H](C(=O)NCC(=O)N[C@@H](CC(=O)O)C(=O)N[C@@H](CCCNC(=N)N)C(=O)NCC(=O)N[C@@H](Cc3ccccc3)C(=O)N[C@@H](Cc3ccc(O)cc3)C(=O)N[C@@H](Cc3ccccc3)C(=O)N[C@@H](CC(N)=O)C(=O)N[C@@H](CCCCN)C(=O)N3CCC[C@H]3C(=O)N[C@H](C(N)=O)[C@@H](C)O)CSSC[C@@H](C(=O)N[C@@H](C)C(N)=O)NC(=O)[C@H](Cc3ccc(O)cc3)NC(=O)[C@H](CCSC)NC(=O)[C@H](CCC(=O)O)NC(=O)[C@H](CC(C)C)NC(=O)[C@H](CCCNC(=N)N)NC(=O)[C@H](CCCNC(=N)N)NC(=O)[C@H](CC(C)C)NC(=O)[C@H](CC(=O)O)NC2=O)NC1=O)C(C)C` [IGF-1 A:B(E10Y16L17)] the “% IGF-1 (in test)” value (IGF-1 receptor [1]; Table 9, IGF-1 Receptor) was 6.8% and 5.0%, the IC80 (IGF-1 receptor [1]; Table 9, IGF-1 Receptor) was 12.2 nM and the Ratio (IGF-1 receptor [1]; [5]) was 11.9. The IC50 (insulin receptor [2]; IC50:) was 0.51 nM, the “% insulin (in test)” value (insulin receptor [2]; Table 9, Insulin Receptor) was 58.7% and 98.8% and the “% native insulin activity (0.6 nM)” value (insulin receptor [2]; Table 9, Insulin Receptor) was 90.9% and 117.6%. The “% Insulin” value (insulin receptor [3]; Table 10, Insulin Receptor) was 49.2% and the “% IGF” value (IGF-1 receptor [4]; Table 10, IGF-1 Receptor) was 13%.
